Assay results as given in patent US20070117152A1, “Biosensor” (FUJIFILM Corporation, priority 2005, published 2007).

How the values were obtained:
Carbonic anhydrase = Carbonic anhydrase (Bos taurus, UniProt P00921); assay: Evaluation of binding ability of hydrochlorothiazide on CA-immobilized chip by surface plasmon resonance (Example 1); details: 50 μM in 1×PBS pH 7.4
Procedure: (§1) The solution in the measurement chip was removed, and the dielectric block was covered with silicone rubber to prepare a cell having an internal volume of 15 μl. The silicone rubber cover was provided with two pores with diameters of 1 mm, and a teflon tube (i.d.: 0.5 mm; o.d.: 1 mm) was allowed to path therethrough to prepare a flow channel system. The chip provided with such flow channel system was mounted on the surface plasmon resonance measurement device of the present invention. Hereafter, liquid exchange was carried out by pouring 500 μl of liquid for 5 seconds.
The flow channel was filled with 70 μl of a mixed solution of 200 mM EDC (N-ethyl-N′-(3-dimethylaminopropyl)carbodiimide hydrochloride) and 50 mM NHS (N-hydroxysuccinimide), and was then allowed to stand for 10 minutes. […] The amount of the immobilized proteins was determined based on changes in signal intensities before and after protein immobilization.
[…] Based on the signal intensity before liquid exchange, changes in the signal intensity were measured at intervals of 0.5 seconds. […] Changes in signal intensities were determined from 5 seconds before the initiation of the exchange to 2 minutes after the exchange.

[1] = biological target: T1, Bovine Carbonic Anhydrase (Bos taurus, UniProt P00921); assay: Evaluation of binding ability of hydrochlorothiazide on CA-immobilized chip by surface plasmon resonance (Example 2); details: 50 μM in 1×PBS pH 7.4
T1 construct: purchased SIGMA
Procedure: as §1
The flow channel was filled with 70 μl of a mixed solution of 200 mM EDC (N-ethyl-N′-(3-dimethylaminopropyl)carbodiimide hydrochloride) and 50 mM NHS (N-hydroxysuccinimide), and was then allowed to stand for 10 minutes. After the liquid exchange was carried out twice with 100 μl of Acetate 5.0 buffer (BIAcore), the liquid was exchanged with the acetate 5.0 solution containing Bovine Carbonic Anhydrase (hereinafter referred to as CA) (SIGMA) with the concentration shown in Table 2, and the resultant was allowed to stand for a certain period to immobilize CA. The inside of the chip was exchanged with 1 M ethanolamine solution and was then allowed to stand for 10 minutes. The interior of the chip was exchanged twice with 100 μl of Acetate 5.0 buffer to prepare CA-immobilized chip. The amount of the immobilized proteins was determined based on changes in signal intensities before and after CA immobilization. Also, the period for adding CA solution is changed, and the minimum period necessary to achieve the immobilized CA amount of 3000 RU or more was determined.
The flow channel system of the CA-immobilized chips, the amount of CA immobilized thereto was approximately 3,000 RU, was filled with 1×PBS buffer (pH 7.4). Based on the signal intensity before liquid exchange, changes in the signal intensity were measured at intervals of 0.5 seconds. The content of the flow channel system was exchanged with a hydrochlorothiazide solution (Sigma) (dissolved in 1×PBS (pH 7.4) to result in 50 μM therein). Changes in signal intensities were determined from 5 seconds before the initiation of the exchange to 2 minutes after the exchange.

T1 sequence (P00921 whole entry): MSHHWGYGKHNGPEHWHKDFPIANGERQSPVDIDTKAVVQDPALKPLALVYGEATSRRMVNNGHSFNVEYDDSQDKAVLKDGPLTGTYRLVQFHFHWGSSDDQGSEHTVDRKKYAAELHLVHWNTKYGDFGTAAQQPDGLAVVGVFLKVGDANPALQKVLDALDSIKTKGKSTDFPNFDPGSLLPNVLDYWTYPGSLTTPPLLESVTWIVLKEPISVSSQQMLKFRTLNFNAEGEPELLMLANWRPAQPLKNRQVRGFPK
Sequence of Carbonic anhydrase (P00921 whole entry): as above

NS(=O)(=O)c1cc2c(cc1Cl)NCNS2(=O)=O [Hydrochlorothiazide, hydrochlorothiazide] was tested, and the “Hydrochlorothiazide Binding amount” value (Carbonic anhydrase; Level 1: dextran (branched) chip, carbonic anhydrase immobilized 1500 RU) was 5 RU, the “Hydrochlorothiazide Binding amount” value (Carbonic anhydrase; Level 5: pullulan (linear) chip, carbonic anhydrase immobilized 2500 RU) was 10 RU and the “Hydrochlorothiazide Binding amount” value ([1]; Level 2: dextran 15% by weight chip, CA 200 μg/ml) was −15 RU. The “Hydrochlorothiazide Binding amount” value ([1]; Level 3: dextran 25% by weight chip, CA 20 μg/ml) was 2 RU, the “Hydrochlorothiazide Binding amount” value ([1]; Level 4: dextran 25% by weight chip, CA 200 μg/ml) was −30 RU and the “Hydrochlorothiazide Binding amount” value ([1]; Level 5: amylose 10% by weight chip, CA 20 μg/ml) was 17 RU. The “Hydrochlorothiazide Binding amount” value ([1]; Level 6: amylose 10% by weight chip, CA 200 μg/ml) was 11 RU, the “Hydrochlorothiazide Binding amount” value ([1]; Level 7: amylose 15% by weight chip, CA 20 μg/ml) was 15 RU and the “Hydrochlorothiazide Binding amount” value ([1]; Level 8: amylose 15% by weight chip, CA 200 μg/ml) was 10 RU.
